Results from US4598070A, “Tripamide and cyclodextrin inclusion compound” (Eisai Co., Ltd., priority 1983, dated 1986).
Converted amounts (≈) assume the structure as drawn. Where two headings read alike, the source gives them in different places.

Assay: Solubility of tripamide in water, Liquid I or Liquid II of the Japanese Pharmacopeia (37° C., 5 days, absorbancy method)
Assay type: physicochemical
Settings: for solubility at 120 h: 37° C., 5 days, as tripamide, Experiment 2
Method: The inclusion compound prepared in accordance with the process described in Example 1 was used as a sample. This sample was prepared by the reaction of 1 mole of tripamide and 3 moles of β-cyclodextrin. For purpose of comparison, tripamide per se was used.
The sample was accurately weighed 100 mg as tripamide and mixed with water, Liquid I of the Japanese Pharmacopeia or Liquid II of the Japanese Pharmacopeia. The mixture was stirred at 37° C. in a warm bath for 5 days. Tripamide, dissolved in the solution, was measured by the absorbancy method.
That is, each of the tripamide solutions in water, Liquid I of the Japanese Pharmacopeia and Liquid II of the Japanese Pharmacopeia was filtered using a millipore filter of 1.2 μm and 1 ml each of the solutions after filtration was taken out. In the case of the solution using Liquid I of the Japanese Pharmacopeia, the solution was further diluted with Liquid I of the Japanese Pharmacopeia to make a 100 ml solution and 5 ml taken out of the resulting solution was further diluted to 50 ml with a 0.1N hydrochloric acid-methanol solution followed by measurement at 244 nm. In the case of each of the solutions in water and Liquid II of the Japanese Pharmacopeia, the solution was diluted to 100 ml with Liquid II of the Japanese Pharmacopeia followed by measurement at 233 nm. […]

NS(=O)(=O)c1cc(C(=O)NN2C[C@@H]3[C@@H]4CC[C@@H](C4)[C@@H]3C2)ccc1Cl [Tripamide, N-(4-A2a-endo-tricyclo[5.2.1.0^2.6. ]decan-4-yl)-4-chloro-3-sulfamoylbenzamide]
solubility at 120 h (Water, read-out: Solubility (mg/ml), Water): 0.0094 mg/mL (≈ 25.4 µM) | solubility at 120 h (jp liquid i, pH 1.2, Liquid I of the Japanese Pharmacopeia, pH about 1.2, read-out: Solubility (mg/ml), Japanese Pharmacopeia Liquid I): 0.349 mg/mL (≈ 944 µM) | solubility at 120 h (jp liquid ii, pH 7.5, Liquid II of the Japanese Pharmacopeia, pH about 7.5, read-out: Solubility (mg/ml), Japanese Pharmacopeia Liquid II): 0.0144 mg/mL (≈ 38.9 µM) | solubility in water, Liquid I and Liquid II (in words) (water, Liquid I and Liquid II of the Japanese Pharmacopoeia, sample for comparison): low | solubility in water (in words) (water, background statement): soluble in water only with extreme difficulty
